PubChem BioAssay AID1918953 (Molecular Pharmacology Branch, DTP, NCI, 2023)

System: MDA-MB-231 complex spheroid viability
Assay: Anticancer human tumor MDA-MB-231/ATCC cell line growth inhibition;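 note: drug exposure lasted 7 days starting on day 3 of spheroid growth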
Details: for IC50: curve of first compound; for viability, T/C: stronger effect = lower value; active = viability on the fitted dose curve at most 10% of control; inactive = the rest
How it was run: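 Multicellular complex spheroids of tumor cells with human endothelial cells (HUVEC) and mesenchymal stem cells; the LSD1 inhibitor iadademstat was combined with standard-of-care or investigational agents. Top concentration at or near clinical Cmax, half-log dilutions; final DMSO ≤0.25%.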

[1] = second compound 0.1 µM, first compound 0.00949 µM
[2] = second compound 0.1 µM, first compound 0.03 µM
[3] = second compound 0.1 µM, first compound 0.0949 µM
[4] = second compound 0.1 µM, first compound 0.3 µM
[5] = second compound 0.1 µM, first compound 0.949 µM
[6] = second compound 0.1 µM, first compound 3 µM
[7] = second compound 0.316 µM, first compound 0.00949 µM
[8] = second compound 0.316 µM, first compound 0.03 µM
[9] = second compound 0.316 µM, first compound 0.0949 µM
[10] = second compound 0.316 µM, first compound 0.3 µM
[11] = second compound 0.316 µM, first compound 0.949 µM
[12] = second compound 0.316 µM, first compound 3 µM
[13] = second compound 1 µM, first compound 0.00949 µM
[14] = second compound 1 µM, first compound 0.03 µM
[15] = second compound 1 µM, first compound 0.0949 µM
[16] = second compound 1 µM, first compound 0.3 µM
[17] = second compound 1 µM, first compound 0.949 µM
[18] = second compound 1 µM, first compound 3 µM
[19] = second compound 3.16 µM, first compound 0.00949 µM
[20] = second compound 3.16 µM, first compound 0.03 µM
[21] = second compound 3.16 µM, first compound 0.0949 µM
[22] = second compound 3.16 µM, first compound 0.3 µM
[23] = second compound 3.16 µM, first compound 0.949 µM
[24] = second compound 3.16 µM, first compound 3 µM
[25] = second compound 10 µM, first compound 0.00949 µM
[26] = second compound 10 µM, first compound 0.03 µM
[27] = second compound 10 µM, first compound 0.0949 µM
[28] = second compound 10 µM, first compound 0.3 µM
[29] = second compound 10 µM, first compound 0.949 µM
[30] = second compound 10 µM, first compound 3 µM

COc1cc(C2c3cc4c(cc3C(OC3OC5COC(C)OC5C(O)C3O)C3COC(=O)C23)OCO4)cc(OC)c1O (stereo not given) + NC1CC1c1ccc(-c2cccc(O)c2)cc1
13.4 nM: IC50 (second compound 0.316 µM)
22.6 nM: IC50 (second compound 0.1 µM)
15.4 nM: IC50 (second compound 1 µM)
inactive: viability, T/C [1] 67.5% | viability, T/C [2] 43.7% | viability, T/C [3] 28.4% | viability, T/C [4] 25.9% | viability, T/C [5] 15.5% | viability, T/C [6] 12% | viability, T/C [7] 55% | viability, T/C [8] 38.7% | viability, T/C [9] 27.1% | viability, T/C [10] 20.5% | viability, T/C [11] 14.2% | viability, T/C [12] 11.3% | viability, T/C [13] 56.7% | viability, T/C [14] 41.7% | viability, T/C [15] 24.9% | viability, T/C [16] 23% | viability, T/C [17] 14% | viability, T/C [18] 11.9% | viability, T/C [19] 48.6% | viability, T/C [20] 32.3% | viability, T/C [21] 23.5% | viability, T/C [22] 20.3% | viability, T/C [23] 14.7% | viability, T/C [24] 11.7% | viability, T/C [25] 38.2% | viability, T/C [26] 25.5% | viability, T/C [27] 24.9% | viability, T/C [28] 20.1% | viability, T/C [29] 11.6%
active: viability, T/C [30] 10%
< 9.49 nM: IC50 (second compound 3.16 µM) | IC50 (second compound 10 µM)

CCN(c1cc(-c2ccc(CN3CCOCC3)cc2)cc(C(=O)NCc2c(C)cc(C)[nH]c2=O)c1C)C1CCOCC1 + NC1CCC(NC2CC2c2ccccc2)CC1
587 nM: IC50 (second compound 10 µM)
> 3000 nM: IC50 (second compound 0.1 µM) | IC50 (second compound 0.316 µM) | IC50 (second compound 1 µM) | IC50 (second compound 3.16 µM)
inactive: viability, T/C [1] 104% | viability, T/C [2] 93.3% | viability, T/C [3] 80.4% | viability, T/C [4] 74.6% | viability, T/C [5] 70.1% | viability, T/C [6] 59.8% | viability, T/C [7] 98.4% | viability, T/C [8] 94% | viability, T/C [9] 81.1% | viability, T/C [10] 73.5% | viability, T/C [11] 68.4% | viability, T/C [12] 59.5% | viability, T/C [13] 95.2% | viability, T/C [14] 91.1% | viability, T/C [15] 75.1% | viability, T/C [16] 75.8% | viability, T/C [17] 64% | viability, T/C [18] 58.4% | viability, T/C [19] 78% | viability, T/C [20] 73.2% | viability, T/C [21] 65.4% | viability, T/C [22] 66% | viability, T/C [23] 60% | viability, T/C [24] 55.2% | viability, T/C [25] 55.9% | viability, T/C [26] 61.5% | viability, T/C [27] 54.8% | viability, T/C [28] 48.6% | viability, T/C [29] 50.5% | viability, T/C [30] 43.5%

NS(=O)(=O)OCC1CC(n2ccc3c(NC4CCc5ccccc54)ncnc32)CC1O (stereo not given) + NC1CCC(NC2CC2c2ccccc2)CC1
169 nM: IC50 (second compound 3.16 µM)
inactive: viability, T/C [1] 136% | viability, T/C [2] 117% | viability, T/C [3] 78.1% | viability, T/C [4] 46.6% | viability, T/C [5] 42.7% | viability, T/C [6] 39.7% | viability, T/C [7] 135% | viability, T/C [8] 116% | viability, T/C [9] 77% | viability, T/C [10] 47.6% | viability, T/C [11] 40.3% | viability, T/C [12] 38.7% | viability, T/C [13] 124% | viability, T/C [14] 107% | viability, T/C [15] 73.4% | viability, T/C [16] 42.2% | viability, T/C [17] 40.6% | viability, T/C [18] 36.8% | viability, T/C [19] 100% | viability, T/C [20] 87.2% | viability, T/C [21] 59.7% | viability, T/C [22] 40.2% | viability, T/C [23] 33.4% | viability, T/C [24] 31.3% | viability, T/C [25] 69.7% | viability, T/C [26] 56.8% | viability, T/C [27] 40.4% | viability, T/C [28] 32.7% | viability, T/C [29] 28.1% | viability, T/C [30] 28.8%
48.6 nM: IC50 (second compound 10 µM)
244 nM: IC50 (second compound 1 µM)
280 nM: IC50 (second compound 0.316 µM)
285 nM: IC50 (second compound 0.1 µM)

COc1cc(Nc2ncc3c(n2)-c2ccc(Cl)cc2C(c2c(F)cccc2OC)=NC3)ccc1C(=O)O + NC1CCC(NC2CC2c2ccccc2)CC1
inactive: viability, T/C (second compound 0.1 µM, first compound 0.00316 µM) 85% | viability, T/C (second compound 0.1 µM, first compound 0.01 µM) 66.4% | viability, T/C (second compound 0.1 µM, first compound 0.0316 µM) 56% | viability, T/C (second compound 0.1 µM, first compound 0.1 µM) 58.7% | viability, T/C (second compound 0.1 µM, first compound 0.316 µM) 50% | viability, T/C (second compound 0.1 µM, first compound 1 µM) 44.3% | viability, T/C (second compound 0.316 µM, first compound 0.00316 µM) 83.1% | viability, T/C (second compound 0.316 µM, first compound 0.01 µM) 65.5% | viability, T/C (second compound 0.316 µM, first compound 0.0316 µM) 56.2% | viability, T/C (second compound 0.316 µM, first compound 0.1 µM) 54.9% | viability, T/C (second compound 0.316 µM, first compound 0.316 µM) 50.8% | viability, T/C (second compound 0.316 µM, first compound 1 µM) 42.7% | viability, T/C (second compound 1 µM, first compound 0.00316 µM) 80.4% | viability, T/C (second compound 1 µM, first compound 0.01 µM) 64.6% | viability, T/C (second compound 1 µM, first compound 0.0316 µM) 55.6% | viability, T/C (second compound 1 µM, first compound 0.1 µM) 56.2% | viability, T/C (second compound 1 µM, first compound 0.316 µM) 51.5% | viability, T/C (second compound 1 µM, first compound 1 µM) 45.6% | viability, T/C (second compound 3.16 µM, first compound 0.00316 µM) 68.4% | viability, T/C (second compound 3.16 µM, first compound 0.01 µM) 54% | viability, T/C (second compound 3.16 µM, first compound 0.0316 µM) 51.2% | viability, T/C (second compound 3.16 µM, first compound 0.1 µM) 54.5% | viability, T/C (second compound 3.16 µM, first compound 0.316 µM) 48.5% | viability, T/C (second compound 3.16 µM, first compound 1 µM) 38.2% | viability, T/C (second compound 10 µM, first compound 0.00316 µM) 49.4% | viability, T/C (second compound 10 µM, first compound 0.01 µM) 42.4% | viability, T/C (second compound 10 µM, first compound 0.0316 µM) 40.7% | viability, T/C (second compound 10 µM, first compound 0.1 µM) 38.6% | viability, T/C (second compound 10 µM, first compound 0.316 µM) 41.8% | viability, T/C (second compound 10 µM, first compound 1 µM) 37.2%
296 nM: IC50 (second compound 1 µM)
< 3.16 nM: IC50 (second compound 10 µM)
179 nM: IC50 (second compound 0.316 µM)
252 nM: IC50 (second compound 0.1 µM)
90.1 nM: IC50 (second compound 3.16 µM)
